# Publication PMC10415124 (Nucleic Acids Research, 2023)
# How the values were obtained:
# Format in all cases: binding
# [1] = target: T1, HsTRPT1 (tRNA 2′-phosphotransferase 1) (Homo sapiens, UniProt Q86TN4); experiment: crystal structure
# T1 sequence (Q86TN4 1-253): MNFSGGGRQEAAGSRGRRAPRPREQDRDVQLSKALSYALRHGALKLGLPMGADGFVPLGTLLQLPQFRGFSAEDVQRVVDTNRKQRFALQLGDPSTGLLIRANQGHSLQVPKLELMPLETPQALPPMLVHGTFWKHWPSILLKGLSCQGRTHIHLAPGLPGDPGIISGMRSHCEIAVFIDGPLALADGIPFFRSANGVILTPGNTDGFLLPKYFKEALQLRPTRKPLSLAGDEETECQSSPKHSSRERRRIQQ
# [2] = target: T2, MmTRPT1 (tRNA 2′-phosphotransferase 1) (Mus musculus, UniProt Q8K3A2); experiment: crystal structure
# T2 sequence (Q8K3A2 1-249): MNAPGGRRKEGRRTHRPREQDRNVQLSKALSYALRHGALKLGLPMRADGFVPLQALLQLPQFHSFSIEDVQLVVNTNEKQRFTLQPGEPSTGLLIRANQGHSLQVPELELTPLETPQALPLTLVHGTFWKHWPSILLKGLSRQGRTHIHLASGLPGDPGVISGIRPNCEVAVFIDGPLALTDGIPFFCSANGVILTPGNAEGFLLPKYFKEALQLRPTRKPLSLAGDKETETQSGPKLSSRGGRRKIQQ
# [3] = target: T2, MmTRPT1 (tRNA 2′-phosphotransferase 1); experiment: ITC
# [4] = target: T1, HsTRPT1 (tRNA 2′-phosphotransferase 1); experiment: ITC
# [5] = target: T3, ScTRPT1 (TPT1, tRNA 2′-phosphotransferase) (Saccharomyces cerevisiae, UniProt Q12272); experiment: ITC and co-crystal structure
# T3 sequence (Q12272 1-230): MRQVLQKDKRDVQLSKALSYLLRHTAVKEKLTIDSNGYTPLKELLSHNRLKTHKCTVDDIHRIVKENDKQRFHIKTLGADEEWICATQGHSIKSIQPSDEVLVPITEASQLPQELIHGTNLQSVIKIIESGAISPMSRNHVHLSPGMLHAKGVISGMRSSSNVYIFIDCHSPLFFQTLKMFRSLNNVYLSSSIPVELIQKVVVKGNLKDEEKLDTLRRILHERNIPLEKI
SMILES,crystal structure [1],crystal structure [2],Kd [3],Kd [4],Kd [5]
Nc1ncnc2c1ncn2[C@@H]1O[C@H](COP(=O)(O)OP(=O)(O)OC[C@H]2O[C@H](OP(=O)(O)O)[C@H](O)[C@@H]2O)[C@@H](O)[C@H]1O [ADPRp],electron density map clearly showed that one ADPRp molecule,binds to the HsTRPT1/MmTRPT1 monomer,–,–,–
NC(=O)c1ccc[n+]([C@@H]2O[C@H](COP(=O)([O-])OP(=O)(O)OC[C@H]3O[C@@H](n4cnc5c(N)ncnc54)[C@H](O)[C@@H]3O)[C@@H](O)[C@H]2O)c1 [NAD^+],–,–,22.3 ± 0.75 µM,11.8 ± 0.32 µM,23.8 ± 1.88 µM
